kcat/Km data for five molecules are collected here from US5270204A, “Covalent angiogenin/RNase hybrids” (The President and Fellows of Harvard College, priority 1992, dated 1993).

Data set [1] has as its target T1, bovine pancreatic RNase A (Bos taurus, UniProt P61823).
T1 sequence (P61823 27-150): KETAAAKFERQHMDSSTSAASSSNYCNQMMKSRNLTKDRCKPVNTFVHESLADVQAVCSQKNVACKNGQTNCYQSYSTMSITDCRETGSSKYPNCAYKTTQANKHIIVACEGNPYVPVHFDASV
Particulars: spectrophotometric assay, 30 mM Mes, 30 mM NaCl, pH 6.0 at 25° C.; cited from earlier work.

Data set [2] addresses human angiogenin, wild type (Homo sapiens, UniProt P03950). Conditions: 30 mM Mes, 30 mM NaCl, pH 6.0 at 37° C.; cited from earlier work.
Substrate in data set [3]: Nc1ccn([C@@H]2O[C@H](CO)[C@@H](OP(=O)(O)OC[C@H]3O[C@@H](n4cnc5c(N)ncnc54)[C@H](O)[C@@H]3O)[C@H]2O)c(=O)n1
Nature of the data set: Activity toward dinucleotide (3',5') phosphates, HPLC quantitation method. Conditions: other: ARH-III, 30 mM Mes, 30 mM NaCl, pH 6.0 at 37° C., 0.1 mM substrate, 2.8 μM ARH-III. The format is biochemical, human. On the procedure:
(§1) Activity toward dinucleotide (3', 5') phosphates was determined by an HPLC quantitation method as described by Shapiro et al., 1988, Anal. Biochem. 175: 450-461; Harper and Vallee, 1989, Biochemistry 28: 1875-1884. Reaction mixtures (30 μL) contained 0.1 mM substrate, 2.8 μM ARH-III and were incubated for 4-24 hours at 37° C.
(§2) The enzymatic activities of ARH-III toward tRNA, 18S and 28S rRNA, and dinucleotide substrates were very similar to those of angiogenin. […] Angiogenin and RNase A (obtained from Cooper Biochemicals) had maximal activities under these assay conditions at pH ~6.8 and ~8.1, respectively, consistent with previous results obtained by Lee & Vallee, 1989b, Biochem. and Biophys. Res. Commun. 161: 121-126. It is known that angiogenin catalyzes the cleavage of dinucleotide substrates, but at rates 5-6 orders of magnitude lower than those observed for RNase A (Shapiro et al., 1988, Anal. Biochem. 175: 450-461; Harper & Vallee, 1989, Biochemistry 28: 1875-1884). Its specificity is different from that of RNase A based on kcat /Km values for 4 different dinucleotides. In all cases, kcat /Km values were within 30% of those observed for angiogenin, and the relative specificity for the substrates was unchanged.
(§3) ^a Assays with ARHIII and angiogenin were performed in 30 mM Mes, 30
(§4) mM NaCl, pH 6.0 at 37° C.

Substrate in data set [4]: Nc1ccn([C@@H]2O[C@H](CO)[C@@H](OP(=O)(O)OC[C@H]3O[C@@H](n4cnc5c(=O)[nH]c(N)nc54)[C@H](O)[C@@H]3O)[C@H]2O)c(=O)n1
The description is as above. The format is biochemical, human. Particulars: other: ARH-III, 30 mM Mes, 30 mM NaCl, pH 6.0 at 37° C., 0.1 mM substrate, 2.8 μM ARH-III. On the procedure:
as §1, §2, §3, §4

Substrate in data set [5]: Nc1nc2c(ncn2[C@@H]2O[C@H](COP(=O)(O)O[C@H]3[C@@H](O)[C@H](n4ccc(=O)[nH]c4=O)O[C@@H]3CO)[C@@H](O)[C@H]2O)c(=O)[nH]1
The description is as above. Particulars: other: ARH-III, 30 mM Mes, 30 mM NaCl, pH 6.0 at 37° C., 0.1 mM substrate, 2.8 μM ARH-III. The format is biochemical, human. On the procedure: as §1, §2, §3, §4

Substrate in data set [6]: Nc1ncnc2c1ncn2[C@@H]1O[C@H](COP(=O)(O)O[C@H]2[C@@H](O)[C@H](n3ccc(=O)[nH]c3=O)O[C@@H]2CO)[C@@H](O)[C@H]1O
Described as above. The format is biochemical, human. Conditions: other: ARH-III, 30 mM Mes, 30 mM NaCl, pH 6.0 at 37° C., 0.1 mM substrate, 2.8 μM ARH-III. On the procedure: as §1, §2, §3, §4

Sequence of human angiogenin, wild type (P03950 25-147): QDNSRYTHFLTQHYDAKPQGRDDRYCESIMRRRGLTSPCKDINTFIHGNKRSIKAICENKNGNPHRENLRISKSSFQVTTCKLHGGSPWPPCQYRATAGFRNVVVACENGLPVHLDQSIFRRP

The term kcat/Km denotes the second-order rate constant that governs catalysis at low substrate concentration. Regarding `Nc1ccn([C@@H]2O[C@H](CO)[C@@H](OP(=O)(O)OC[C@H]3O[C@@H](n4cnc5c(=O)[nH]c(N)nc54)[C@H](O)[C@@H]3O)[C@H]2O)c(=O)n1` [CpG, cytidylyl-(3'-5') guanosine], the kcat/Km in data set [1] is 510000 M⁻¹ s⁻¹; in data set [2], 4.0 M⁻¹ s⁻¹.

For the molecule `Nc1nc2c(ncn2[C@@H]2O[C@H](COP(=O)(O)O[C@H]3[C@@H](O)[C@H](n4ccc(=O)[nH]c4=O)O[C@@H]3CO)[C@@H](O)[C@H]2O)c(=O)[nH]1` [UpG, uridylyl-(3'-5') guanosine], the kcat/Km in data set [1] is 180000 M⁻¹ s⁻¹; in data set [2], 0.4 M⁻¹ s⁻¹.

In the case of `Nc1ncnc2c1ncn2[C@@H]1O[C@H](COP(=O)(O)O[C@H]2[C@@H](O)[C@H](n3ccc(=O)[nH]c3=O)O[C@@H]2CO)[C@@H](O)[C@H]1O` [UpA, uridylyl-(3'-5') adenosine], the kcat/Km in data set [1] is 4e+06 M⁻¹ s⁻¹; in data set [2], 1.1 M⁻¹ s⁻¹.

`Nc1ccn([C@@H]2O[C@H](CO)[C@@H](OP(=O)(O)OC[C@H]3O[C@@H](n4cnc5c(N)ncnc54)[C@H](O)[C@@H]3O)[C@H]2O)c(=O)n1` [CpA, cytidylyl-(3'-5') adenosine]: the results for the kcat/Km in data set [1] and in data set [2] were 6e+06 M⁻¹ s⁻¹ and 12 M⁻¹ s⁻¹, respectively.

B1: ARH-III, angiogenin/RNase hybrid: human angiogenin with residues 8-22 replaced by residues 7-21 of bovine pancreatic RNase A (Homo sapiens) (protein)
chain: QDNSRYTKFERQHMDSSTSAASDRYCESIMRRRGLTSPCKDINTFIHGNKRSIKAICENKNGNPHRENLRISKSSFQVTTCKLHGGSPWPPCQYRATAGFRNVVVACENGLPVHLDQSIFRRP
notes: the coding region for Met-(-1) through Asn-3; fragment C consisted of the coding region from Arg-24 through Pro-123; made in house; host or cells: E. coli W3110 (plasmid pARH-III)
For the molecule B1, the kcat/Km came to 13 M⁻¹ s⁻¹ in data set [3], 3.4 M⁻¹ s⁻¹ in data set [4], 0.4 M⁻¹ s⁻¹ in data set [5] and 0.8 M⁻¹ s⁻¹ in data set [6].
